Results from patent US8975235B2, “Lysophosphatidic acid receptor antagonists” (InterMune, Inc., priority 2011, dated 2015).

Target: Human LPA1 (Homo sapiens, UniProt Q92633)
Experiment: Beta-Arrestin based assay for human LPA1R antagonists (PathHunter)
Format: cell-based
Parameters: host or cells: CHO
Settings: CHO cells stably expressing ProLink tagged human LPA1R; agonist LPA 0.5 micromolar
Method: Beta-Arrestin Based Assays for Human LPA1R Antagonists and Agonists
A CHO cell line stably expressing the ProLink™ tagged human LPA1R was obtained from DiscoverX Inc, Fremont, Calif. In this system, β-Arrestin was fused to an N-terminal deletion mutant of β-galactosidase (termed the enzyme acceptor or EA), the human LPA1R was fused to a smaller (42 amino acids) weakly complementing fragment termed ProLink™. […] Cell handling and assays were performed according to protocols specified in the PathHunter® assays kits (DiscoverX, Fremont, Calif.). Assays were performed in quadruplicate in white 384 well plates. End point luminescence data were plotted and fit to a 4 parameter logistic function to obtain IC50 values. For antagonist assays, an […] concentration of agonist (LPA) equal to 0.5 micromolar was used.

Human LPA1, sequence (Q92633 whole entry): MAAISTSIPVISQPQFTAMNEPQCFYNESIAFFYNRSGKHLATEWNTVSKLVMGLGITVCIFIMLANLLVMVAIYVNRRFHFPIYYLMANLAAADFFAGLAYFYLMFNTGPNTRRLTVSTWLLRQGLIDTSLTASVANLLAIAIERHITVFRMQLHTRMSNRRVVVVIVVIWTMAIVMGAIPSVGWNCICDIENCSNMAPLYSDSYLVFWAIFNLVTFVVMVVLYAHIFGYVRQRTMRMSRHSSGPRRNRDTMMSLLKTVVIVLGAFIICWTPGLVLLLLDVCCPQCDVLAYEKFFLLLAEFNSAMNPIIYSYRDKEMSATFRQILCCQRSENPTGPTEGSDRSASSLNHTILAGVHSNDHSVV

| SMILES | EC50 [nM] |
| --- | --- |
| Cn1ncc(-c2ccc(-c3ccc(C4(C(=O)O)CC4)cc3)cc2)c1NC(=O)OCc1ccccc1 [Compound 172] | < 50 |
| Cc1nsc(-c2ccc(-c3ccc(C4(C(=O)O)CC4)cc3)cc2)c1NC(=O)O[C@H](C)c1cccc(Cl)c1 [Compound 198] | < 50 |
| CCCC(=O)Nc1ccnc(-c2ccc(-c3ccc(CC(=O)O)cc3)cc2)c1 [reference compound] | > 500 |
| CN(CC(=O)N1CCC(c2ccc(CC(=O)O)cc2)CC1)C(=O)OCc1ccccc1 [Compound 258] | > 500 |
| Cc1nnn(-c2ccc(-c3ccc(C4(C(=O)O)CC4)cc3)cc2)c1NC(=O)OCc1ccccc1 [Compound 157] | 50 to 500 |
| Cc1noc(-c2ccc(-c3ccc(N4CC[C@@H](C(=O)O)C4)cc3)cc2)c1NC(=O)O[C@H](C)c1ccccc1 [Compound 133] | > 500 |
| Cc1nsc(-c2ccc3c(c2)CCc2cc(C4(C(=O)O)CC4)ccc2-3)c1NC(=O)O[C@H](C)c1ccccc1Cl [Compound 249] | < 50 |
| Cc1ccccc1COC(=O)Nc1c(C)nsc1-c1ccc(-c2ccc(C3(C(=O)O)CC3)cc2)cc1 [Compound 85] | 50 to 500 |
| C[C@@H](OC(=O)Nc1ccn(-c2ccc(-c3ccc(C4(C(=O)O)CC4)cc3)cc2)n1)c1ccccc1 [Compound 163] | > 500 |
| Cc1noc(-c2ccc(-c3ccc(CC(=O)O)cc3)cc2)c1NS(=O)(=O)Cc1ccccc1 [Compound 17] | > 500 |
| C[C@@H](OC(=O)Nc1c(-c2cc(F)c(-c3ccc(C4(C(=O)O)CC4)cc3)cc2F)cnn1C)c1ccccc1Cl [Compound 199] | < 50 |
| C[C@@H](OC(=O)Nc1scnc1-c1ccc(-c2ccc(C3(C(=O)O)CC3)cc2)cc1)c1ccccc1 [Compound 106] | 50 to 500 |
| Cc1nsc(-c2c(F)cc(-c3ccc(C4(C(=O)O)CC4)cc3)cc2F)c1NC(=O)O[C@H](C)c1ccccc1 [Compound 183] | 50 to 500 |
| O=C(O)Cc1ccc(N2CCN(C(=O)CCNC(=O)COc3ccccc3)CC2)cc1 [Compound 265] | > 500 |
| Cc1nsc(-c2ccc(-c3ccc(C4(C(=O)O)CC4)cc3)cc2)c1NC(=O)OC(C)c1ccccc1 (stereo not drawn) [Compound 253] | < 50 |
| C[C@@H](OC(=O)Nc1c(-c2ccc(-c3ccc(C4(C(=O)O)CC4)cc3)c(F)c2)cnn1C)c1ccccc1 [Compound 203] | < 50 |
| C[C@@H](OC(=O)Nc1nonc1-c1ccc(-c2ccc(C3(C(=O)O)CC3)cc2)cc1)c1ccccc1 [Compound 176] | < 50 |
| C[C@@H](OC(=O)Nc1ncsc1-c1ccc(-c2ccc(C3(C(=O)O)CC3)cc2)cc1)c1ccccc1Cl [Compound 110] | 50 to 500 |
| Cc1noc(C#Cc2ccc3cc(C4(C(=O)O)CC4)ccc3c2)c1NC(=O)O[C@H](C)c1ccccc1 [Compound 130] | < 50 |
| Cc1nsc(-c2ccc(-c3ccc(C4(C(=O)O)CC4)cc3)cc2C#N)c1NC(=O)O[C@H](C)c1ccccc1 [Compound 189] | > 500 |
| Cc1noc(-c2ccc(-c3ccc(C4(C(=O)O)CN(S(C)(=O)=O)C4)cc3)cc2)c1NC(=O)O[C@H](C)c1ccccc1Cl [Compound 38] | < 50 |
| O=C(Nc1cncn1-c1ccc(-c2ccc(C3(C(=O)O)CC3)cc2)cc1)OCc1ccccc1 [Compound 166] | > 500 |

| SMILES | EC50 [nM] |
| --- | --- |
| CCOC(=O)Cc1ccc(-c2ccc(-c3onc(C)c3NS(=O)(=O)c3ccccc3)cc2)cc1 [Compound 18] | > 500 |
| C[C@@H](OC(=O)Nc1snnc1-c1ccc(-c2ccc(C3(C(=O)O)CC3)cc2)cc1)c1ccccc1Cl [Compound 175] | 50 to 500 |
| C[C@@H](OC(=O)Nc1cnsc1-c1ccc(-c2ccc(C3(C(=O)O)CC3)cc2)cc1)c1ccccc1Cl [Compound 210] | 50 to 500 |
| C[C@@H](OC(=O)Nc1c(-c2ccc(-c3ccc(C4(C(=O)O)CC4)cc3)cc2F)cnn1C)c1ccccc1 [Compound 204] | < 50 |
| Cc1noc(-c2ccc(-c3ccc(N4CC[C@H](C(=O)O)C4)cc3)cc2)c1NC(=O)O[C@H](C)c1ccccc1Cl [Compound 135] | 50 to 500 |
| Cc1nsc(-c2ccc(-c3ccc(C4(C(=O)O)CC4)cc3)cc2)c1NC(=O)O[C@@H](C)c1ccccc1 [Compound 236] | > 500 |
| Cc1noc(C#Cc2ccc3cc(C4(C(=O)O)CC4)ccc3c2)c1NC(=O)O[C@H](C)c1ccccc1Cl [Compound 131] | < 50 |
| Cc1nsc(C#Cc2ccc3cc(C4(C(=O)O)CC4)ccc3c2)c1NC(=O)O[C@H](C)c1ccccc1Cl [Compound 93] | < 50 |
| Cc1nsc(-c2ccc(-c3ccc(C4(C(=O)O)CC4)cc3)cc2)c1NC(=O)OCc1ccc(Cl)cc1 [Compound 100] | 50 to 500 |
| C[C@@H](OC(=O)Nc1c(-c2ccc(-c3ccc(C4(C(=O)O)CC4)cc3)cc2)oc2ccccc12)c1ccccc1Cl [Compound 42] | < 50 |
| C[C@@H](OC(=O)Nc1nsnc1-c1ccc(-c2ccc(C3(C(=O)O)CC3)cc2)cc1)c1ccccc1 [Compound 211] | 50 to 500 |
| Cc1noc(C#Cc2ccc(C3(C(=O)O)CC3)cc2)c1NC(=O)O[C@H](C)c1ccccc1 [Compound 250] | 50 to 500 |
| CCn1ncc(-c2ccc(-c3ccc(C4(C(=O)O)CC4)cc3)cc2)c1NC(=O)O[C@H](C)c1ccccc1 [Compound 221] | < 50 |
| O=C(Nc1snnc1-c1ccc(-c2ccc(C3(C(=O)O)CC3)cc2)cc1)OCc1ccccc1 [Compound 173] | > 500 |
| O=C(Nc1scnc1-c1ccc(-c2ccc(C3(C(=O)O)CC3)cc2)cc1)OCc1ccccc1 [Compound 108] | 50 to 500 |
| Cc1nsc(-c2ccc(-c3ccc(C4(C(=O)O)CC4)cc3)cc2)c1NC(=O)O[C@H](C)c1cccc(F)c1 [Compound 194] | < 50 |
| Cc1noc(-c2ccc(-c3ccc4c(c3)CCCC4C(=O)O)cc2)c1NC(=O)O[C@H](C)c1ccccc1Cl (stereo partly drawn) [Compound 23] | 50 to 500 |
| Cc1noc(-c2ccc(-c3ccc(N4CCC[C@H](C(=O)O)C4)cc3)cc2)c1NC(=O)O[C@H](C)c1ccccc1 [Compound 137] | 50 to 500 |
| C[C@@H](OC(=O)Nc1oc2ccccc2c1-c1ccc(-c2ccc(C3(C(=O)O)CC3)cc2)cc1)c1ccccc1 [Compound 208] | > 500 |
| Cc1nsc(C#Cc2ccc3cc(CC(=O)O)ccc3c2)c1NC(=O)O[C@H](C)c1ccccc1Cl [Compound 94] | 50 to 500 |
| O=C(O)Cc1ccc(C2CCN(C(=O)[C@@H](Cc3ccccc3)NC(=O)OCc3ccccc3)CC2)cc1 [Compound 257] | > 500 |
| Cc1noc(-c2nc3cc4oc(C5(C(=O)O)CC5)nc4cc3o2)c1NC(=O)O[C@H](C)c1ccccc1 [Compound 178] | 50 to 500 |

| SMILES | EC50 [nM] |
| --- | --- |
| Cc1noc(-c2ccc(-c3ccc(C4(C(=O)O)CN(C)C4)cc3)cc2)c1NC(=O)O[C@H](C)c1ccccc1Cl [Compound 39] | 50 to 500 |
| C[C@@H](OC(=O)Nc1oncc1-c1ccc(-c2ccc(C3(C(=O)O)CC3)cc2)cc1)c1ccccc1 [Compound 206] | < 50 |
| Cc1nsc(-c2ccc(-c3ccc(C4(C(=O)O)CC4)cc3)c(Cl)c2)c1NC(=O)O[C@H](C)c1ccccc1 [Compound 188] | < 50 |
| C[C@@H](OC(=O)Nc1c(-c2ccc(-c3ccc(C4(C(=O)O)CC4)cc3)cc2)ncn1C)c1ccccc1Cl [Compound 168] | < 50 |
| C[C@@H](OC(=O)Nc1nncn1-c1ccc(-c2ccc(C3(C(=O)O)CC3)cc2)cc1)c1ccccc1 [Compound 158] | > 500 |
| O=C(O)Cc1ccc(-c2ccc(-c3cc(NC(=O)C4CCCC4)ccn3)cc2)cc1 [reference compound] | > 500 |
| Cc1nsc(-c2ccc(-c3ccc(C4(C(=O)O)CC4)cc3)cc2)c1NC(=O)OCc1cccc(F)c1Cl [Compound 103] | 50 to 500 |
| Cc1nc(NC(=O)O[C@H](C)c2ccccc2)n(-c2ccc(-c3ccc(C4(C(=O)O)CC4)cc3)cc2)n1 [Compound 161] | > 500 |
| Cc1noc(C#Cc2cc3sc(C(=O)O)cc3s2)c1NC(=O)O[C@H](C)c1ccccc1 [Compound 254] | 50 to 500 |
| CCC(=O)Nc1ccnc(-c2ccc(-c3ccc(CC(=O)O)cc3)cc2)c1 [reference compound] | > 500 |
| Cc1nsc(-c2ccc(-c3ccc(C4(C(=O)O)CC4)cc3)nc2)c1NC(=O)O[C@H](C)c1ccccc1Cl [Compound 251] | 50 to 500 |
| Cc1nsc(-c2ccc(-c3ccc(C4(C(=O)O)CC4)cc3)cc2Cl)c1NC(=O)O[C@H](C)c1ccccc1Cl [Compound 187] | < 50 |
| Cc1nsc(-c2ccc(-c3ccc(C4(C(=O)OC5OC(C(=O)O)C(O)C(O)C5O)CC4)cc3)cc2)c1NC(=O)O[C@H](C)c1ccccc1 (stereo partly drawn) [Compound 238] | > 500 |
| C[C@@H](OC(=O)Nc1nn(C)nc1-c1ccc(-c2ccc(C3(C(=O)O)CC3)cc2)cc1)c1ccccc1 [Compound 225] | > 500 |
| Cc1noc(-c2ccc3cc(C#CC4(C(=O)O)CC4)ccc3c2)c1NC(=O)OCc1ccccc1 [Compound 142] | < 50 |
| O=C(O)Cc1ccc(N2CCN(C(=O)[C@@H](Cc3ccccc3)NC(=O)OCc3ccccc3)CC2)cc1 [Compound 266] | > 500 |
| C[C@@H](OC(=O)Nc1sc2ccccc2c1-c1ccc(-c2ccc(C3(C(=O)O)CC3)cc2)cc1)c1ccccc1 [Compound 207] | > 500 |
| Cc1nsc(-c2ccc(-c3ccc(CC(=O)O)c(Cl)c3)cc2)c1NC(=O)O[C@H](C)c1ccccc1Cl [Compound 192] | 50 to 500 |
| CN(CC(=O)N1CCN(c2ccc(CC(=O)O)cc2)CC1)C(=O)OCc1ccccc1 [Compound 271] | > 500 |
| Cc1noc(-c2ccc(-c3ccc(N4CC[C@H](C(=O)O)C4)cc3)cc2)c1NC(=O)O[C@H](C)c1ccccc1 [Compound 132] | 50 to 500 |
| O=C(O)Cc1ccc(N2CCN(C(=O)CCCNC(=O)OCc3ccccc3)CC2)cc1 [Compound 270] | > 500 |
| O=C(O)Cc1ccc(C2CCN(C(=O)CCNC(=O)OCc3ccccc3)CC2)cc1 [Compound 256] | > 500 |
